# Assay results as given in PubChem BioAssay AID1985 (Southern Research Specialized Biocontainment Screening …, 2009).
# System: S. Typhi PhoP-promoter GFP reporter, fluorescence, 4 h
# Experiment: modified counter assay using GFP fluorescence, PhoP regulon inhibitor project, dose response (AID 1985)
row,SMILES,IC50 [µM]
1,CCCCCCCCCCC[N+](C)(C)CC/C=C1/c2ccccc2Sc2ccc(Cl)cc21,31.4
2,CCCCCCCCNC(C)C(O)c1ccc(SC(C)C)cc1 (stereo unspecified),41.8
3,Cc1ccc(-n2c(-c3ccc(Br)cc3)c[n+]3c2CCc2ccc4cccnc4c2-3)cc1,97.5
4,Cc1ccc(C(=O)NNC(=S)NC(=O)c2ccccc2)cc1,62.8
5,COc1cc(/C=C/[N+](=O)[O-])ccc1O,53.4
6,CN1CCN(Cc2cc(COCc3ccccc3)c3cccnc3c2O)CC1,62.9
7,Cc1ccc(OCC(O)Cn2c(=N)n(CCN3CCCCC3)c3ccccc32)cc1 (stereo unspecified),67.9
8,CCCCCc1ccc(OCCC[n+]2ccccc2)c(CCCCC)c1,82.7
9,Cc1ccccc1Nc1cc(C)c2c(O)cccc2n1,25.5
10,Cc1ccc(Nc2cc(C)c3c(O)cccc3n2)cc1C,30.7
11,CN1C(=O)NC(c2ccc(O)cc2)C(C(=O)c2cccs2)C1(O)C(F)(F)F (stereo unspecified),19.9
12,CN1CCN(c2ccc(NC(=O)c3ccc(-c4ccc(Br)cc4)o3)cc2)CC1,83.3
13,CCC(/C=C1\Sc2ccc(OC)cc2N1CCO)=C\c1sc2ccc(OC)cc2[n+]1CCO,95
14,O=C(Nc1ccc(Cl)cc1)c1cccs1,105
15,CCOC(=O)Cn1c(=N)n(CCOc2ccc3ccccc3c2)c2ccccc21,79.1
16,O=C(CN1C2=NCCCN2c2ccccc21)c1ccc(Br)s1,135
17,CN(C)CCNc1oc(COc2ccc(-c3ccccc3)cc2)nc1C#N,78.8
18,Cc1occc1C(=O)N/N=C/c1cccs1,45.7
19,CS(=O)(=O)c1ccc([C@@H](O)[C@@H](CF)NC(=O)C(Cl)Cl)cc1,4.74
20,Cc1c(N=Cc2cc(Br)cc(Br)c2O)cccc1C(=O)O,77.5
21,CCN(CC(=O)NC(C)(C)C)C(=O)COc1c(Cl)cc(Cl)c2ccc(C)nc12,43.5
22,CCOc1cccc(/C=N/NC(=O)c2cc(C3CC3)[nH]n2)c1O,136
23,O=C(CCc1ccccc1)NNC(=S)NC(=O)c1ccccc1,122
24,Nc1nonc1C(=O)N/N=C/c1cc(Br)ccc1O,12.7

row,SMILES,IC50 [µM]
1,Fc1ccc(CCNCc2ccc(Cl)c(Cl)c2)cc1,68.4
2,O=c1[nH]cc(F)c(=O)[nH]1,0.378
3,O=C(N/N=C/c1cccs1)c1ccc2nc[nH]c2c1,136
4,Cc1cc(C)c(NC(=O)C[N+](C)(C)CC(O)COc2cccc3ccccc23)c(C)c1 (stereo unspecified),75.9
5,O=C(O)c1cc2c(cn1)[nH]c1ccccc12,73
6,Cc1ccc(OCc2nnc(NC(=O)c3cccnc3)s2)cc1,13.9
7,O=C(N/N=C/c1ccccc1O)c1ccncc1,24.7
8,CCOc1ccc(Nc2c3ccccc3nc3ccccc23)cc1,56.7
9,O=C(Nc1ccc(Cc2ccncc2)cc1)c1ccc([N+](=O)[O-])o1,39.5
10,COc1ccc(C(=O)CCN2CCc3cc(OC)c(OC)cc3C2)cc1,122
11,COc1cc(CNCCc2ccccc2)cc(Cl)c1OCc1ccccc1,78.9
12,O=[N+]([O-])c1cccc2c(N3CCCC3)ccnc12,17.6
13,CCn1cc(C(=O)O)c(=O)c2ccc(C)nc21,76.6
14,CO[C@@]1(NC(=O)Cc2cccs2)C(=O)N2C(C(=O)O)=C(COC(N)=O)CS[C@@H]21,40.5
15,Cc1ccc(S(=O)(=O)CCC(=O)c2ccc(O)cc2O)cc1,69.1
16,Cc1cccc(Nc2cc(C)c3c(O)cccc3n2)c1C,49.6
17,Cc1ccc(-c2cc(-c3ccc(C)cc3)[n+](-c3ccccc3)c(-c3ccc(C)cc3)c2)cc1,34.5
18,CCCCCCCCCCn1c2c(c(=N)c3c1CCC3)CCC2,144
19,C=C1c2cccc(O)c2C(O)=C2C(=O)[C@]3(O)C(O)=C(C(N)=O)C(=O)[C@@H](N(C)C)[C@@H]3[C@@H](O)[C@H]12,0.376
20,Cc1ccc(C(=O)Sc2cccccc2=O)cc1,1.97
21,O=C(Oc1c(Cl)cc(Cl)c2cccnc12)c1ccco1,11.9
22,Cc1ccc2c(c1)sc(-c1ccc(N(C)C)cc1)[n+]2C,23.6
23,C/C(=N\NC(=O)c1ccc(CN2CCc3ccccc3C2)cc1)c1ccccc1O,42
24,O=c1c2ccccc2[nH]c2ccc(F)cc12,71.2

row,SMILES,IC50 [µM]
1,CCOC(=O)N1CCN(Cc2cc(Cl)c3cccnc3c2O)CC1,37.8
2,OCCNc1nc(Nc2ccc(Br)cc2)nc2ccccc12,19
3,CN1CCN(C2=Cc3ccccc3Sc3cc(F)c(F)cc32)CC1,74.6
4,CC[C@@H](C)[C@H](CN[C@H](CNC)C(C)C)NC[C@@H](C)c1ccc(CC(C)C)cc1,61
5,Cn1c(SCC(=O)N/N=C/c2ccc([N+](=O)[O-])s2)nnc1-c1ccc(Cl)cc1,38.9
6,CCCCCCCCCCCCCCCC[n+]1ccc(C(N)=O)cc1,15.4
7,CCCCCCCCCCCCCCCC[N+](C)(C)CC,22.4
8,Oc1ccccc1Nc1nc(NCc2ccco2)c2ccccc2n1,137
9,CN1CCN(C2Cc3cc(F)ccc3Sc3ccc(Cl)cc32)CC1 (stereo unspecified),74.4
10,CN1CCc2nc(SCC(=O)Nc3ccc(Cl)cc3)c(C#N)cc2C1,67.2
11,COc1ccc(C(=O)NNC(=S)NC(=O)c2ccccc2)cc1,82.5
12,CCN(CCNCC(O)COc1ccccc1C(C)C)c1cccc(C)c1 (stereo unspecified),72.6
13,O=C(CSc1ccccn1)N/N=C/c1c[nH]c2ccccc12,133
14,COc1ccc(C(=O)NC(=S)NNC(=O)c2cnccn2)cc1,80.5
15,C/C(=N\NC(=O)c1ccc(Cl)cc1)c1ccccn1,48.3
16,C/C(=N/Nc1ccnc2cc(Cl)ccc12)c1ccc(N)cc1,55.3
17,N=c1n(Cc2ccc(Cl)cc2)c2ccccc2n1CC(O)COc1ccccc1 (stereo unspecified),66.8
18,COc1ccc2c(C(=O)CCl)c[nH]c2c1,36.3
19,COc1c2ccccc2nc2ccccc12,28.8
20,O=C(OCC(=O)N1CCOCC1)c1ccc[nH]c1=O,10.6
21,Oc1c(C(Nc2ccccn2)c2cccnc2)cc(Cl)c2cccnc12 (stereo unspecified),33.9
22,CN1CCN(C(c2ccc(Br)cc2)c2cc(Cl)c3cccnc3c2O)CC1 (stereo unspecified),33.6
23,C#CCOCCOCCOCCNc1nc(N2CCN(C(=O)CCCCCCCCCCNC(=O)Cn3cc(CCCCCN)nn3)CC2)nc(N2CCN(C(=O)CCCCCCCCCCNC(=O)[C@H]([C@@H](C)CC)n3cc(CCCCCN)nn3)CC2)n1,71.3
24,OC1(c2ccc(Cl)cc2)CCN(Cc2c[nH]c3ccccc23)CC1,101

row,SMILES,IC50 [µM]
1,O=c1c2ccccc2[nH]c2ccccc12,27.2
2,CCn1cc(C(=O)O)c(=O)c2cc(F)c(N3CCN(C(=S)Nc4ccc(OC)cc4)CC3)cc21,5.64
3,Cc1ccc2c(c1)N/C(=C(\C=C(/Cl)[N+](=O)[O-])[N+](=O)[O-])N2,81.1
4,O=C(Nc1ccc([N+](=O)[O-])cc1Cl)c1cc(Cl)ccc1O,76
5,CCn1cc(C(=O)NCCN(C)C)c(=O)c2cc(F)c(N3CCN(C)CC3)cc21,34
6,Cc1cc(C)nc(SCC(=O)Nc2sc3c(c2C#N)CCC(C)C3)n1 (stereo unspecified),41.8
7,COc1ccc(CNc2ncnc3c2[nH]c2ccccc23)cc1,59.2
8,Cc1cc(C)c2nc(C)cc(N/N=C/c3ccc(O)cc3)c2c1,49.7
9,O=c1cc(-c2ccccc2)nc2nc(-c3ccco3)[nH]n12,139
10,Cc1cc(C)n2nc(S(=O)(=O)Nc3c(Cl)cccc3Cl)nc2n1,11.1
11,OC(CNCc1ccco1)Cn1c2ccc(Br)cc2c2cc(Br)ccc21 (stereo unspecified),28
12,c1ccc(Sc2cccc3ccccc23)c(CNC2=NCCN2)c1,80
13,Nc1nnc(-c2cccc(Cl)c2Cl)c(N)n1,33
14,COc1ccc(Nc2cc(C)c3c(O)cccc3n2)cc1,34.4
15,CC(/C=N/Nc1nc2ccccc2[nH]1)=C\c1ccccc1,71.8
16,CCSc1ccc2c(c1)N(CCCN1CCN(C)CC1)c1ccccc1S2,131
17,O=C(/C=C/c1ccccc1Cl)c1ccccc(=O)c1O,37.9
18,CCc1cccc2c(C(=O)COC(=O)c3ccc([N+](=O)[O-])s3)c[nH]c12,10.4
19,O=C(C[n+]1cnn(CC(=O)c2ccc(Cl)cc2Cl)c1)c1ccc([N+](=O)[O-])cc1,42.8
20,CCn1cc(C(=O)O)c(=O)c2cc(F)c(N3CCN(C(=S)NC(=O)c4ccccc4C)CC3)cc21,28.2
21,CCCNC(=O)c1cn(CC)c2cc(N3CCN(C)CC3)c(F)cc2c1=O,28
22,COc1c(N2CCN(C(=S)Nc3ccc(F)cc3)C(C)C2)c(F)cc2c(=O)c(C(=O)O)cn(C3CC3)c12 (stereo unspecified),0.581
23,C#CCOCCOCCOCCNc1nc(N2CCN(C(=O)[C@H](Cc3cc4ccccc4[nH]3)n3cc([C@@H](N)C(C)CC)nn3)CC2)nc(N2CCN(C(=O)[C@H](Cc3cc4ccccc4[nH]3)n3cc([C@@H](N)CC(C)C)nn3)CC2)n1 (stereo partly specified),54.5
24,O=C(Nc1cccc(N=Cc2cc(Cl)cc(Br)c2O)c1)c1ccco1,94.3

row,SMILES,IC50 [µM]
1,O=C(NC(=S)NNC(=O)c1cccs1)c1ccc(Br)o1,25.4
2,COc1ccc2[nH]c3c(C)c4ccncc4c(C)c3c2c1,39.2
3,CN1CCN(C2Cc3cc(Cl)ccc3Sc3cc(F)ccc32)CC1 (stereo unspecified),37.5
4,COc1ccc(/C=C/c2cc[n+](C(=O)Cc3ccccc3)cc2)cc1,107
5,COc1cc(/C=N/NC(=O)c2cncc(Br)c2)cc([N+](=O)[O-])c1O,< 0.23
6,Cc1cc(C)c2c(N)c3ccccc3nc2n1,86
7,c1ccc(Nc2nc(NCc3ccco3)c3ccccc3n2)cc1,24
8,COc1c(N2CCN(C(=S)NC3CC4CCC3C4)C(C)C2)c(F)cc2c(=O)c(C(=O)O)cn(C3CC3)c12 (stereo unspecified),1.11
9,Cc1[nH]c2ccc(OC(F)(F)F)cc2c1CCNCc1ccc(Cl)cc1,36.3
10,CC(C)CCC(CCNCc1ccccn1)c1ccc(Cl)cc1 (stereo unspecified),79.4
11,N#Cc1nc(Cc2cccc3ccccc23)oc1NCCCN1CCOCC1,62
12,Cc1cc(Cl)c(OCCCNCc2ccccc2)c(Br)c1,81.7
13,CCOc1cccc(CNCCc2c(C)[nH]c3ccc(OC(F)(F)F)cc23)c1O,76.2
14,Cc1[nH]n(-c2ccccc2)c(=O)c1C(c1cccc([N+](=O)[O-])c1O)c1c(C)[nH]n(-c2ccccc2)c1=O,48.5
15,Cc1cccc(Nc2nc(NCc3ccco3)c3ccccc3n2)c1,11
16,COc1cccc(/C=N/NC(=O)C(=O)N2CCCC2)c1O,101
17,Oc1ccc(N=Nc2ccc(Br)cc2)c(O)c1,87.8
18,O=C(N/N=C/c1cc(O)ccc1Br)c1cccnc1,33.2
19,COc1ccccc1N1CCN(Cc2ccc(O)c3ncccc23)CC1,72
20,CCN1/C(=C/C=C/C=C/c2sc3ccccc3[n+]2CC)Sc2ccccc21,30.9
